US5731334A, “Method for treating cancer using taxoid onium salt prodrugs” (priority 1995, dated 1998)

Experiments:
[1] = system: L-1210 leukemia cells; assay: XTT dye binding cytotoxicity assay, L-1210; format: cell-based, mouse; details: L1210; L-1210, mouse leukemia; 72 h; read-out: IC50
Experimental: (§1) All cell lines described herein were obtained from the ATCC and maintained in media formulations as recommended by the supplier. The cell lines were tested for mycoplasma contamination prior to incubation at 37° C. in 5% carbon dioxide. Normal human dermal fibroblasts, peripheral blood lymphoblasts and mammary epithelial cells were obtained from Clonogenic Cor., San Diego, Calif. and were maintained under the above incubation conditions in special media provided by the supplier.
(§2) Antiproliferative activities of the onium salts were determined using the XTT dye binding assay. Cells were harvested with trypsin/EDTA (Irvine Scientific), washed, resuspended in the appropriate medium, and counted in a hemocytometer using Trypan Blue to determine viability. Then 10^4 cells/well were added to 96 well microtiter plates and incubated for 24 hours before addition of drug at concentrations in the range of 10^-4 to 10^-13 molar by direct addition from DMSO solutions. After 72 hours, XTT binding dye was added and incubation was continued for 4 hours. The inhibition of cell proliferation was quantified using a Molecular Devices Microplate Reader. The absorbance of XTT was measured at […]. The concentration of drug which inhibited growth of cells by 50% was calculated from duplicated determinations.

[2] = system: Molt-4 T-cell leukemia cells; assay: XTT dye binding cytotoxicity assay, Molt-4; format: cell-based; details: Homo sapiens; Molt-4, T-cell leukemia; 72 h; read-out: IC50
Experimental: as §1, §2

[3] = system: HL-60 promyelocytic leukemia cells; assay: XTT dye binding cytotoxicity assay, HL-60; format: cell-based; details: Homo sapiens; HL-60, promyelocytic leukemia; 72 h; read-out: IC50
Experimental: as §1, §2

[4] = system: intact Molt-4 cells; assay: Competition binding of tritiated compounds to intact Molt-4 cells; parameters: species or system human
Experimental: The competition by nonradioactive taxol or c-2'-MPA-taxol for the binding of 1×10^-9 M tritiated compounds by intact Molt-4 cells is illustrated in FIG. 3. Tritiated taxol (Moravek Corp.) was treated with 2-fluoropyridiunium tosylate according to the method of Nicolaou et al. to yield the C-2'-MPT-^3 H-taxol. (Angew. Chem., Int. Ed. 1994: vol. 34, pp. 1583-1587.) Six well plates were incubated with 10^6 Molt-4 cells in 50 mM phosphate buffered saline (PBS) or PRPMI media to which 10^-9 M of the radiolabeled taxol or taxol onium salt was added together with increasing concentrations of nonradiolabeled compound. After 30 minutes, the cells were centrifuged, washed with PBS and 1% SDS was added. […] Alternatively, the cells may be lysed by sonication.

[5] = system: NHDF dermal fibroblast; assay: XTT dye binding cytotoxicity assay, NHDF; format: cell-based; details: Homo sapiens, dermal fibroblast (untransformed), 72 h, read-out: IC50
Experimental: as §1, §2

[6] = system: M-24 metastatic melanoma cells; assay: XTT dye binding cytotoxicity assay, M-24; format: cell-based; details: Homo sapiens, M24; M-24, melanoma-metastatic; 72 h; read-out: IC50
Experimental: as §1, §2

[7] = system: CHO Chinese hamster ovary cells; assay: XTT dye binding cytotoxicity assay, CHO; format: cell-based; details: Cricetulus griseus; CHO, Chinese hamster ovary (untransformed); 72 h; read-out: IC50
Experimental: as §1, §2

[8] = system: HMEC mammary epithelial cells; assay: XTT dye binding cytotoxicity assay, HMEC; format: cell-based; details: Homo sapiens, mammary epithelial cells (untransformed), 72 h, read-out: IC50
Experimental: as §1, §2

[9] = system: RPMI-7666 blood lymphoblasts; assay: XTT dye binding cytotoxicity assay, RPMI-7666; format: cell-based; details: Homo sapiens; RPMI-7666, blood lymphoblasts (untransformed); 72 h; read-out: IC50
Experimental: as §1, §2

[10] = Comparative toxicities (lethality) in mice; details: in vivo
[11] = system: human tumor xenografts; assay: In vivo antitumor effect (human tumor xenografts in nude mice)

CC(=O)O[C@H]1C(=O)[C@@]2(C)[C@H]([C@H](OC(=O)c3ccccc3)[C@]3(O)C[C@H](OC(=O)[C@H](Oc4cccc[n+]4C)[C@@H](NC(=O)c4ccccc4)c4ccccc4)C(C)=C1C3(C)C)[C@]1(OC(C)=O)CO[C@@H]1C[C@@H]2O [Compound 2]
IC50 [1]: 12.8 nM | IC50 [2]: 7.07 nM | IC50 [3]: 0.25 nM | Kd ([4]; calculated from slopes of linear portions of curves in FIG. 3, read-out: binding constant): 3000 nM | affinity in competition assays of intact cells, in words ([4]; relative to parent taxol): three orders of magnitude below that of the parent taxol | lower specific binding affinity than taxol ([4]; relative to taxol): approximately 1000 fold | IC50 [5]: 377 nM | IC50 [6]: 0.35 nM | IC50 [7]: 214 nM | IC50 [8]: 127 nM | IC50 [9]: 131 nM | in vivo toxicity relative to taxol or taxotere [10]: much less toxic in vivo than taxol or taxotere | Toxicity ([10]; mouse): minimal toxicity | lethality ([10]; mouse): no lethality | in vivo antitumor efficacy in words [11]: produced tumor regression with a high percentage of animals being free of measurable tumor masses at the end of the experiments
